Measured values reported in patent US12122750B2, “AT2R antagonists and uses thereof” (Eli Lilly and Company, priority 2022, dated 2024).

Experiments:
[1] = Plasma concentration of test compound in the receptor occupancy study; assay type: in vivo, Sprague Dawley rats; conditions: rat
Experimental: Twenty male Sprague Dawley rats (140-150 gms, Envigo) were maintained under controlled laboratory conditions on a 12 hr light cycle with ad lib access to food and water. On the morning of the experiment, rats were orally dosed with vehicle (1% (w/v) hydroxyethylcellulose, 0.25% (w/v) polysorbate 80, 0.05% (v/v) antifoam 1510-US in purified water) or appropriate doses of test compound (5 mL/kg, n=4 rats/group) using the same vehicle. Following a pre-determined survival time, plasma and adrenals were collected and frozen at −80° C. until analyzed. Frozen 20 μm sections of an adrenal from each animal were collected onto gelatin-coated slides and stored at −80° C. Autoradiography to detect AT2R occupancy (RO) was conducted under cold conditions using methods modified from F. M. J. Heemskerk, et al, Brain Research 677 (1995) 29-38. Total binding was defined by 0.3 nM ^125I-CGP42112 (selective AT2R agonist, Perkin Elmer, Inc) with the addition of 10 μM unlabeled AngII used to define non-specific binding. Following exposure to a phosphoimager plate (BAS TR2025, GE Healthcare), the bound radioactivity is calculated with use of MCID software (Imaging Research, Inc) and calibrated ^125I standards (American Radiolabeled Chemicals, Inc). The specific ligand binding for each animal is calculated by subtracting the non-specific binding from the total bound.

[2] = biological target: T1, AT2R (Rattus norvegicus (Rat), UniProt P35351); assay: AT2R ex vivo autoradiography receptor occupancy in rat adrenal sections after oral dosing; set-up: species or system Sprague Dawley rats; conditions: for IC50 / IC80: plasma concentration plotted vs % receptor occupancy, rat; for ex vivo IC50 (TER) / ex vivo IC80 (TER): rat receptor occupancy
T1 sequence (P35351 whole entry): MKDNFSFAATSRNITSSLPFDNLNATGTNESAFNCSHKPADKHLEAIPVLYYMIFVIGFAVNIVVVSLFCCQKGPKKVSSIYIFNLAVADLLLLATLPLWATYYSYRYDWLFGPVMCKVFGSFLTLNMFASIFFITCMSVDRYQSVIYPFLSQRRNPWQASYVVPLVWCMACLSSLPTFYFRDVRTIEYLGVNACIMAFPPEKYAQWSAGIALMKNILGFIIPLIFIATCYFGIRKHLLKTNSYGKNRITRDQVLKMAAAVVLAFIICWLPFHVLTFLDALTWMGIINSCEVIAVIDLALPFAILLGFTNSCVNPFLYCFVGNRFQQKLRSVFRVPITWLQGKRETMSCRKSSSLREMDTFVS
Experimental: The ability for a compound to engage its target may be measured by determining compound's receptor occupancy. An ex vivo autoradiography assay was conducted as described herein.
Twenty male Sprague Dawley rats (140-150 gms, Envigo) were maintained under controlled laboratory conditions on a 12 hr light cycle with ad lib access to food and water. […] Following a pre-determined survival time, plasma and adrenals were collected and frozen at −80° C. until analyzed. Frozen 20 μm sections of an adrenal from each animal were collected onto gelatin-coated slides and stored at −80° C. […] The specific ligand binding for each animal is calculated by subtracting the non-specific binding from the total bound.

[3] = biological target: T1, AT2R; assay: Inhibition of C21-induced increase in dermal blood flow (laser Doppler imaging); assay type: in vivo, Sprague Dawley rats
[4] = biological target: rAT2R (Rattus norvegicus (Rat), UniProt P35351); assay: Rat binding affinity, competitive radioligand binding assay (SPA), rAT2R HEK293 membranes; conditions: rat AT2R
Chain of rAT2R (P35351 whole entry): as above
Experimental: Membrane Preparation Protocol (hAT2R HEK293 and rAT2R HEK293)
(§1) Receptor Binding Protocol
(§2) The assays were performed with a scintillation proximity assay (SPA) method using polyvinyltoluene (PVT) wheat germ agglutinin-coupled SPA beads (Perkin Elmer Cat. #RPNQ0001). Assay buffer containing BSA (50 mM Tris-HCl, pH 7.5, 150 mM NaCl, 0.1% w/v fatty-acid free BSA) was used for preparing radioligand, membrane and SPA bead reagent dilution to working stock concentrations. Reference control and test compounds were diluted to obtain ten-point concentration response curves using a four-fold serial dilution protocol onto assay plates, dispensed acoustically from DMSO stock using automated ECHO instrument technology (Labcyte, Inc.). Concentration response curves were routinely generated with the highest final assay concentration for the reference angiotensin-II control at 50 nM, and the highest final assay concentration for the test compounds at 50 μM. […] The hAT2R membrane was combined with PVT-WGA SPA beads to obtain a final assay concentration of 0.25 μg/well hAT2R membrane+0.1 mg/well PVT-WGA SPA bead. And the hAT1R membrane PVT-WGA SPA bead final concentrations was 0.5 μg/well hAT1R membrane+0.1 mg/well PVT-WGA SPA bead. […] For all assays, radioligand addition was followed by the addition of membrane-SPA bead mixture, i.e., the hAT2R membrane-SPA bead mixture (30 μL), the rAT2R membrane-SPA bead mixture, or the AT1R membrane-SPA bead mixture (30 μL) into the assay plate. All dispensing steps were added using a Multiflo FX (Biotek, Inc.) bulk dispensing instrument. After reagent addition steps, assay plates were sealed, and plate contents mixed for one minute on a benchtop micro-plate shaker. Following a 10-hour incubation at room temperature to allow for bead settling and radioligand binding, bound radioactivity was quantitated using a Microbeta Trilux scintillation counter (Perkin Elmer) and expressed as counts per minute (CPM). The unlabeled angiotensin-II control was included on each plate as an experimental assay reference.
(§3) Compounds were tested in a 10-point concentration response curve (CRC) format, with each plate containing the positive control angiotensin-II positive reference compound, and experimental compounds. Maximum binding response (Max) was determined in 32 control wells per plate using assay buffer treatment only, and the minimum binding controls or nonspecific binding response (Min) was also determined in 32 wells per plate by the treatment with 50 nM angiotensin-II. All test sample concentration responses were normalized to the control response and calculated as a percent of the maximal response after correcting for nonspecific binding as shown below: % Specific inhibition=100%−[(CPM−Min)/(Max−Min)×100%]
(§4) Percent specific binding (y-axis) was plotted versus the log concentration of compound (x-axis).

[5] = biological target: recombinant human angiotensin-II receptor subtype I (hAT1R) (Homo sapiens (Human), UniProt P30556); assay: Competitive radioligand binding assay (SPA), hAT1R/CHO membranes; conditions: [125I]-Tyr4-Angiotensin-II, read-out: AT1R Ki
Chain of recombinant human angiotensin-II receptor subtype I (hAT1R) (P30556 whole entry): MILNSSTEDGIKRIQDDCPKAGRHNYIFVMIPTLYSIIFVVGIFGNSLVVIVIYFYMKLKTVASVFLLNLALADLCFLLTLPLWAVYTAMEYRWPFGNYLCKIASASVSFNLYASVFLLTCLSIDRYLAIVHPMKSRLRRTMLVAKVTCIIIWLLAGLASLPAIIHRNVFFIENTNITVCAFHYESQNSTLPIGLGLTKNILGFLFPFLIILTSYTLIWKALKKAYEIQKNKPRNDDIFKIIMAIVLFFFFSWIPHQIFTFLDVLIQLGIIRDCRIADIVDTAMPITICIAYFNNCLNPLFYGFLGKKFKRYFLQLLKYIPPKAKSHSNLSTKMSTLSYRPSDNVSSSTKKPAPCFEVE
Experimental: Membranes hATIR/CHO were Purchased from PerkinElmer, Inc.
Cellular membranes prepared from Chinese hamster ovary (CHO) cells which expressed recombinant human angiotensin-II receptor subtype I (hAT1R), were purchased from PerkinElmer (Catalog Number ES-072-M400UA).
as §1, §2, §3, §4
Binding affinities for compounds of the present disclosure were determined according to the assay described herein.
Binding affinities for compounds of the present disclosure were determined according to the assay described above.

[6] = biological target: recombinant human angiotensin-II receptor subtype 2 (hAT2R) (Homo sapiens (Human), UniProt P50052); assay: Competitive radioligand binding assay (SPA), hAT2R HEK293 membranes; conditions: [125I]-Tyr4-Angiotensin-II, read-out: AT2R Ki
Chain of recombinant human angiotensin-II receptor subtype 2 (hAT2R) (P50052 whole entry): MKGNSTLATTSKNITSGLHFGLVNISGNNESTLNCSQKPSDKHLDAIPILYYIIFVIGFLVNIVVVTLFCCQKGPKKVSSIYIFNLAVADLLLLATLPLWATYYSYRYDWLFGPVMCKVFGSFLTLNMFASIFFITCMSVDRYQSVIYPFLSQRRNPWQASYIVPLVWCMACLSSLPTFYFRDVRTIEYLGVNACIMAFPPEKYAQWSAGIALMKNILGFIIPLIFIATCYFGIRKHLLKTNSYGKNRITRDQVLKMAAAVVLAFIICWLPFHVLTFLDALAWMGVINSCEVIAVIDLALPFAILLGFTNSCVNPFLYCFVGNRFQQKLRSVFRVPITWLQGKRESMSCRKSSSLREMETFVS
Procedure, shortened: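 SPA competition binding on membranes from HEK293 cells stably transfected with hAT2R (0.25 μg/well, with 0.1 mg/well PVT-WGA beads) in 50 mM Tris-HCl pH 7.5, 150 mM NaCl, 0.1% fatty-acid-free BSA. Ten-point four-fold dilution curves ran from 50 μM top final concentration. Bound radioactivity was counted (CPM) after 10 h at room temperature.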

[plasma, free, nM] ([1]; oral dose 1 mg/kg) [nM]	[plasma, free, nM] ([1]; oral dose 3 mg/kg) [nM]	[plasma, free, nM] ([1]; oral dose 30 mg/kg) [nM]	[plasma, free, nM] ([1]; oral dose 100 mg/kg) [nM]	IC50 [2] [nM]	IC80 [2] [nM]	receptor occupancy at 10 mg/kg ([2]; rat adrenal, oral dose 10 mg/kg, read-out: % RO) [%]	receptor occupancy at 30 mg/kg ([2]; rat adrenal, oral dose 30 mg/kg, read-out: % RO) [%]	receptor occupancy at 100 mg/kg ([2]; rat adrenal, oral dose 100 mg/kg, read-out: % RO) [%]	ex vivo IC50 (TER) [2] [TER]	ex vivo IC80 (TER) [2] [TER]	inhibition at 1 mg/kg ([3]; dose 1 mg/kg, C21-induced increase in dermal blood flow) [%]	inhibition at 3 mg/kg ([3]; dose 3 mg/kg, C21-induced increase in dermal blood flow) [%]	inhibition at 10 mg/kg ([3]; dose 10 mg/kg, C21-induced increase in dermal blood flow) [%]	inhibition at 30 mg/kg ([3]; C21-induced increase in dermal blood flow) [%]	inhibition at 30 mg/kg ([3]; second, unlabelled column under % Inhibition) [%]	Ki [4] [nM]	Ki [5] [nM]	Ki [6] [nM]	SMILES
6.39	18.9	6.28	15.7	0.483	3.03	17.3	84.7	93.7	0.108	0.678	7.8	47.2	67.6	86.9	97.3	4.47			COc1ccc2c(c1OCc1ccccc1)C[C@@H](C(=O)O)N(C(=O)C(c1ccccc1)c1ccccc1)C2 [EMA401, Olodanrigan, reference compound]
				1.58	3.82				2.358	5.701						0.67	> 49900	1.28	O=C(CC1(C(=O)O)CCN(c2ccccn2)CC1)N(c1ccccc1)C1CCCC(F)(F)C1 (single isomer, unassigned) [Example 74B, 4-(2-((3,3-difluorocyclohexyl)(phenyl)amino)-2-oxoethyl)-1-(pyridin-2-yl)piperidine-4-carboxylic acid]
